This note sets out measurements from patent publication US20250206732A1, “COMPOUNDS AND METHODS FOR THE TARGETED DEGRADATION OF KRAS” (Arvinas Operations, Inc., priority 2022, published 2025).

This test deals with T1, AsPC-1 HiBiT-KRASG12D (Homo sapiens, UniProt P01116, G12D).
T1 construct: insert the HiBiT tag onto the N-terminus of one or more of the endogenous KRAS alleles; endogenous in cells; host or cells: AsPC-1 (ATCC CRL-1682), CRISPR-Cas9 knock-in clone, one tagged allele
Put plainly: HiBiT degradation assay (G12D), AsPC-1 HiBiT-KRASG12D cells. Conditions: 24 hours treatment; for Dmax: ASPC1, AsPC-1 HiBiT-KRASG12D cells, maximum degradation observed; for DC50: AsPC-1 HiBiT-KRASG12D cells, HiBiT luminescence. The class given is cell-based. The method in brief:
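AsPC-1 cells carried a CRISPR knock-in of an N-terminal HiBiT tag on endogenous KRAS G12D. After 24 h compound treatment at 37 °C (triplicate), viability was read by alamar blue (4 h, fluorescence, normalized to DMSO). HiBiT-KRAS levels were then measured by Nano-Glo HiBiT lytic luminescence after 45 min at room temperature.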
For orientation: With HiBiT, luminescence reflects the tagged protein that the partner subunit can reach.

T1 sequence (P01116 1-188 isoform P01116-2 G12D): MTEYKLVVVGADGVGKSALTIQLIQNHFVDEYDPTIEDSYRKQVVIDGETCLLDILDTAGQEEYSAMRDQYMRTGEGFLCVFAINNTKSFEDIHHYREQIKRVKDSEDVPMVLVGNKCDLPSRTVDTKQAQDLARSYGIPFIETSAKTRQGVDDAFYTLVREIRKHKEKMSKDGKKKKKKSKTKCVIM

As for `CCc1cccc2cc(O)cc(-c3ncc4c(N5CC6CCC(C5)N6)nc(OC[C@]56CCCN5[C@H](COC(=O)N5CCN(c7cc([C@H](C(=O)N8C[C@H](O)C[C@H]8C(=O)N[C@@H](C)c8ccc(C#N)cc8)C(C)C)on7)CC5)CC6)nc4c3F)c12` [Compound 66, [(3S,7aR)-7a-{[(4-{3,8-diazabicyclo[3.2.1]octan-3-yl}-7-(8-ethyl-3-hydroxynaphthalen-1-yl)-8-fluoropyrido[4,3-d]pyrimidin-2-yl)oxy]methyl}-hexahydro-1H-pyrrolizin-3-yl]methyl 4-{5-[(2R)-1-[(2S,4R)-2-{[(1S)-1-(4-cyanophenyl)ethyl]carbamoyl}-4-hydroxypyrrolidin-1-yl]-3-methyl-1-oxobutan-2-yl]-1,2-oxazol-3-yl}piperazine-1-carboxylate], the Dmax (in general, the largest share of the target that was removed) fell in the range of 60 to 80% and the DC50 (in general, the concentration at which degradation of the target reaches its halfway point) was less than 600 nM.
In turn, `CCc1cccc2cc(O)cc(-c3ncc4c(N5CC6CCC(C5)N6)nc(OC[C@]56CCCN5[C@H](COC(=O)N5CCN(c7cc([C@@H](C(=O)N8C[C@H](O)C[C@H]8C(=O)N[C@@H](C)c8ccc(C#N)cc8)C(C)C)on7)CC5)CC6)nc4c3F)c12` [Compound 67, [(3S,7aR)-7a-{[(4-{3,8-diazabicyclo[3.2.1]octan-3-yl}-7-(8-ethyl-3-hydroxynaphthalen-1-yl)-8-fluoropyrido[4,3-d]pyrimidin-2-yl)oxy]methyl}-hexahydro-1H-pyrrolizin-3-yl]methyl 4-{5-[(2S)-1-[(2S,4R)-2-{[(1S)-1-(4-cyanophenyl)ethyl]carbamoyl}-4-hydroxypyrrolidin-1-yl]-3-methyl-1-oxobutan-2-yl]-1,2-oxazol-3-yl}piperazine-1-carboxylate] came in with a DC50 greater than 3000 nM.
For `CCc1cccc2cc(O)cc(-c3ncc4c(N5CC6CCC(C5)N6)nc(OCCN5CCC(CC6CN(c7cc([C@H](C(=O)N8C[C@H](O)C[C@H]8C(=O)N[C@@H](C)c8ccc(-c9scnc9C)cc8)C(C)C)on7)C6)CC5)nc4c3F)c12` [Compound 81, (2S,4R)-1-[(2R)-2-(3-{3-[(1-{2-[(4-{3,8-diazabicyclo[3.2.1]octan-3-yl}-7-(8-ethyl-3-hydroxynaphthalen-1-yl)-8-fluoropyrido[4,3-d]pyrimidin-2-yl)oxy]ethyl}piperidin-4-yl)methyl]azetidin-1-yl}-1,2-oxazol-5-yl)-3-methylbutanoyl]-4-hydroxy-N-[(1S)-1-[4-(4-methyl-1,3-thiazol-5-yl)phenyl]ethyl]pyrrolidine-2-carboxamide], the Dmax was 80 to 100% and the DC50 was less than 600 nM.
The molecule `CCc1cccc2cc(O)cc(-c3ncc4c(N5CC6CCC(C5)N6)nc(OC[C@]56CCCN5[C@H](COC(=O)N5CCN(c7cc([C@@H](C(=O)N8C[C@H](O)C[C@H]8C(=O)N[C@@H](C)c8ccc(-c9scnc9C)cc8)C(C)C)on7)CC5)CC6)nc4c3F)c12` [Compound 87, [(3S,7aR)-7a-{[(4-{3,8-diazabicyclo[3.2.1]octan-3-yl}-7-(8-ethyl-3-hydroxynaphthalen-1-yl)-8-fluoropyrido[4,3-d]pyrimidin-2-yl)oxy]methyl}-hexahydro-1H-pyrrolizin-3-yl]methyl 4-{5-[(2S)-1-[(2S,4R)-4-hydroxy-2-{[(1S)-1-[4-(4-methyl-1,3-thiazol-5-yl)phenyl]ethyl]carbamoyl}pyrrolidin-1-yl]-3-methyl-1-oxobutan-2-yl]-1,2-oxazol-3-yl}piperazine-1-carboxylate] returned a Dmax of 20 to 60% and a DC50 of 600 to 1000 nM.
The like results for `CCc1cccc2cc(O)cc(-c3ncc4c(N5CC6CCC(C5)N6)nc(OC[C@@]56CCCN5[C@H](CN5CCC7(CC5)CN(c5cc([C@H](C(=O)N8C[C@H](O)C[C@H]8C(=O)N[C@@H](C)c8ccc(-c9scnc9C)cc8)C(C)C)on5)C7)CC6)nc4c3F)c12` [Compound 88, (2S,4R)-1-[(2R)-2-[3-(7-{[(3S,7aS)-7a-{[(4-{3,8-diazabicyclo[3.2.1]octan-3-yl}-7-(8-ethyl-3-hydroxynaphthalen-1-yl)-8-fluoropyrido[4,3-d]pyrimidin-2-yl)oxy]methyl}-hexahydro-1H-pyrrolizin-3-yl]methyl}-2,7-diazaspiro[3.5]nonan-2-yl)-1,2-oxazol-5-yl]-3-methylbutanoyl]-4-hydroxy-N-[(1S)-1-[4-(4-methyl-1,3-thiazol-5-yl)phenyl]ethyl]pyrrolidine-2-carboxamide] were, in that order, 80 to 100% and less than 600 nM.
Molecule `CCc1cccc2cc(O)cc(-c3ncc4c(N5CC6CCC(C5)N6)nc(OC[C@@]56CCCN5[C@H](COC(=O)N(C)Cc5cc([C@H](C(=O)N7C[C@H](O)C[C@H]7C(=O)N[C@@H](C)c7ccc(-c8scnc8C)cc7)C(C)C)on5)CC6)nc4c3F)c12` [Compound 90, [(3S,7aS)-7a-{[(4-{3,8-diazabicyclo[3.2.1]octan-3-yl}-7-(8-ethyl-3-hydroxynaphthalen-1-yl)-8-fluoropyrido[4,3-d]pyrimidin-2-yl)oxy]methyl}-hexahydro-1H-pyrrolizin-3-yl]methyl N-({5-[(2R)-1-[(2S,4R)-4-hydroxy-2-{[(1S)-1-[4-(4-methyl-1,3-thiazol-5-yl)phenyl]ethyl]carbamoyl}pyrrolidin-1-yl]-3-methyl-1-oxobutan-2-yl]-1,2-oxazol-3-yl}methyl)-N-methylcarbamate] showed a Dmax of 80 to 100% and a DC50 of less than 600 nM.
Regarding `CCc1cccc2cc(O)cc(-c3ncc4c(N5CC6CCC(C5)N6)nc(OC[C@@]56CCCN5[C@H](COC(=O)N(C)Cc5cc([C@@H](C(=O)N7C[C@H](O)C[C@H]7C(=O)N[C@@H](C)c7ccc(-c8scnc8C)cc7)C(C)C)on5)CC6)nc4c3F)c12` [Compound 91, [(3S,7aS)-7a-{[(4-{3,8-diazabicyclo[3.2.1]octan-3-yl}-7-(8-ethyl-3-hydroxynaphthalen-1-yl)-8-fluoropyrido[4,3-d]pyrimidin-2-yl)oxy]methyl}-hexahydro-1H-pyrrolizin-3-yl]methyl N-({5-[(2S)-1-[(2S,4R)-4-hydroxy-2-{[(1S)-1-[4-(4-methyl-1,3-thiazol-5-yl)phenyl]ethyl]carbamoyl}pyrrolidin-1-yl]-3-methyl-1-oxobutan-2-yl]-1,2-oxazol-3-yl}methyl)-N-methylcarbamate], the Dmax lay within 20 to 60% and the half-maximal degradation concentration (DC50) lay within 1000 to 3000 nM.
For `CCc1cccc2cc(O)cc(-c3ncc4c(N5CC6CCC(C5)N6)nc(OC[C@]56CCCN5[C@@H](COC(=O)N(C)Cc5cc([C@H](C(=O)N7C[C@H](O)C[C@H]7C(=O)N[C@@H](C)c7ccc(-c8scnc8C)cc7)C(C)C)on5)CC6)nc4c3F)c12` [Compound 92, [(3R,7aR)-7a-{[(4-{3,8-diazabicyclo[3.2.1]octan-3-yl}-7-(8-ethyl-3-hydroxynaphthalen-1-yl)-8-fluoropyrido[4,3-d]pyrimidin-2-yl)oxy]methyl}-hexahydro-1H-pyrrolizin-3-yl]methyl N-({5-[(2R)-1-[(2S,4R)-4-hydroxy-2-{[(1S)-1-[4-(4-methyl-1,3-thiazol-5-yl)phenyl]ethyl]carbamoyl}pyrrolidin-1-yl]-3-methyl-1-oxobutan-2-yl]-1,2-oxazol-3-yl}methyl)-N-methylcarbamate] the same measures were 80 to 100% and less than 600 nM.
`CCc1cccc2cc(O)cc(-c3ncc4c(N5CC6CCC(C5)N6)nc(OC[C@]56CCCN5[C@@H](COC(=O)N(C)Cc5cc([C@@H](C(=O)N7C[C@H](O)C[C@H]7C(=O)N[C@@H](C)c7ccc(-c8scnc8C)cc7)C(C)C)on5)CC6)nc4c3F)c12` [Compound 93, [(3R,7aR)-7a-{[(4-{3,8-diazabicyclo[3.2.1]octan-3-yl}-7-(8-ethyl-3-hydroxynaphthalen-1-yl)-8-fluoropyrido[4,3-d]pyrimidin-2-yl)oxy]methyl}-hexahydro-1H-pyrrolizin-3-yl]methyl N-({5-[(2S)-1-[(2S,4R)-4-hydroxy-2-{[(1S)-1-[4-(4-methyl-1,3-thiazol-5-yl)phenyl]ethyl]carbamoyl}pyrrolidin-1-yl]-3-methyl-1-oxobutan-2-yl]-1,2-oxazol-3-yl}methyl)-N-methylcarbamate] registered a maximal degradation (Dmax) of 20 to 60% and a DC50 of 1000 to 3000 nM.
In the case of `CCc1cccc2cc(O)cc(-c3ncc4c(N5CC6CCC(C5)N6)nc(OC[C@@]56CCCN5[C@H](CN5CCN(c7cc([C@H](C(=O)N8C[C@H](O)C[C@H]8C(=O)N[C@@H](C)c8ccc(-c9scnc9C)cc8)C(C)C)on7)CC5)CC6)nc4c3F)c12` [Compound 94, (2S,4R)-1-[(2R)-2-[3-(4-{[(3S,7aS)-7a-{[(4-{3,8-diazabicyclo[3.2.1]octan-3-yl}-7-(8-ethyl-3-hydroxynaphthalen-1-yl)-8-fluoropyrido[4,3-d]pyrimidin-2-yl)oxy]methyl}-hexahydro-1H-pyrrolizin-3-yl]methyl}piperazin-1-yl)-1,2-oxazol-5-yl]-3-methylbutanoyl]-4-hydroxy-N-[(1S)-1-[4-(4-methyl-1,3-thiazol-5-yl)phenyl]ethyl]pyrrolidine-2-carboxamide], the Dmax was in the range of 80 to 100% and the DC50 is less than 600 nM.
In the case of `CCc1cccc2cc(O)cc(-c3ncc4c(N5CC6CCC(C5)N6)nc(OC[C@@]56CCCN5[C@H](CN5CCN(c7cc([C@@H](C(=O)N8C[C@H](O)C[C@H]8C(=O)N[C@@H](C)c8ccc(-c9scnc9C)cc8)C(C)C)on7)CC5)CC6)nc4c3F)c12` [Compound 95, (2S,4R)-1-[(2S)-2-[3-(4-{[(3S,7aS)-7a-{[(4-{3,8-diazabicyclo[3.2.1]octan-3-yl}-7-(8-ethyl-3-hydroxynaphthalen-1-yl)-8-fluoropyrido[4,3-d]pyrimidin-2-yl)oxy]methyl}-hexahydro-1H-pyrrolizin-3-yl]methyl}piperazin-1-yl)-1,2-oxazol-5-yl]-3-methylbutanoyl]-4-hydroxy-N-[(1S)-1-[4-(4-methyl-1,3-thiazol-5-yl)phenyl]ethyl]pyrrolidine-2-carboxamide], the DC50 is greater than 3000 nM.
